Experimental data: patent US20100092526A1, “NANOEMULSION THERAPEUTIC COMPOSITIONS AND METHODS OF USING THE SAME” (NanoBio Corporation, priority 2008, published 2010)
Values after ≈ are worked out from the molar mass of the structure shown. Where two headings read alike, the source gives them in different places.

Assays:
[1] = tested on: Stenotrophomonas maltophilia; assay: MIC/MBC against CF isolates (CLSI, alamar blue); conditions: Stenotrophomonas maltophilia
Pseudomonas aeruginosa = assay: MIC/MBC against CF isolates (CLSI, alamar blue)
Acinetobacter baumannii = assay: MIC/MBC against clinical isolates (CLSI, alamar blue); conditions: Acinetobacter baumannii
Burkholderia cenocepacia = assay: MIC/MBC against CF isolates (CLSI, alamar blue); conditions: Burkholderia cenocepacia
[2] = CF Stenotrophomonas isolate NB41
[3] = CF Stenotrophomonas isolate NB42
[4] = CF Stenotrophomonas isolate NB43
[5] = CF Stenotrophomonas isolate NB44
[6] = CF Stenotrophomonas isolate NB45
[7] = CF Stenotrophomonas isolate Steno 1
[8] = CF Stenotrophomonas isolate Steno 2
[9] = CF Stenotrophomonas isolate Steno 3
[10] = CF Stenotrophomonas isolate Steno 4
[11] = CF Stenotrophomonas isolate Steno 6
[12] = CF Stenotrophomonas isolate Steno 8
[13] = Pseudomonas aeruginosa, CF Pseudomonas isolate NB1
[14] = Pseudomonas aeruginosa, CF Pseudomonas isolate NB2
[15] = Pseudomonas aeruginosa, CF Pseudomonas isolate NB3
[16] = Pseudomonas aeruginosa, CF Pseudomonas isolate NB4
[17] = Pseudomonas aeruginosa, CF Pseudomonas isolate NB5
[18] = Pseudomonas aeruginosa, CF Pseudomonas isolate NB6
[19] = Pseudomonas aeruginosa, CF Pseudomonas isolate NB7
[20] = Pseudomonas aeruginosa, CF Pseudomonas isolate NB8
[21] = Pseudomonas aeruginosa, CF Pseudomonas isolate NB9
[22] = Pseudomonas aeruginosa, CF Pseudomonas isolate NB10
[23] = Pseudomonas aeruginosa, CF Pseudomonas isolate NB11
[24] = Pseudomonas aeruginosa, CF Pseudomonas isolate NB12
[25] = Pseudomonas aeruginosa, CF Pseudomonas isolate NB13
[26] = Pseudomonas aeruginosa, CF Pseudomonas isolate NB14
[27] = Pseudomonas aeruginosa, CF Pseudomonas isolate NB15
[28] = Pseudomonas aeruginosa, CF Pseudomonas isolate NB16
[29] = Pseudomonas aeruginosa, CF Pseudomonas isolate NB17
[30] = Pseudomonas aeruginosa, CF Pseudomonas isolate NB18
[31] = Pseudomonas aeruginosa, CF Pseudomonas isolate NB19
[32] = Pseudomonas aeruginosa, CF Pseudomonas isolate NB20

## CO[C@@]1(NC(=O)Cc2cccs2)C(=O)N2C(C(=O)O)=C(COC(N)=O)CS[C@@H]21 [Cefoxitin]
[1]
  MIC50: > 256 µg/mL
  MIC90: > 256 µg/mL
[1]; [2]
  MBC: > 256 µg/mL
  MIC: > 256 µg/mL
[1]; [3]
  MBC: > 256 µg/mL
  MIC: > 256 µg/mL
[1]; [4]
  MBC: > 256 µg/mL
  MIC: > 256 µg/mL
[1]; [5]
  MBC: > 256 µg/mL
  MIC: 256 µg/mL (≈ 599 µM)
[1]; [6]
  MBC: > 256 µg/mL
  MIC: > 256 µg/mL
[1]; [7]
  MBC: > 256 µg/mL
  MIC: > 256 µg/mL
[1]; [8]
  MBC: > 256 µg/mL
  MIC: > 256 µg/mL
[1]; [9]
  MBC: > 256 µg/mL
  MIC: 256 µg/mL (≈ 599 µM)
[1]; [10]
  MBC: 256 µg/mL (≈ 599 µM)
  MIC: 256 µg/mL (≈ 599 µM)
[1]; [11]
  MBC: 256 µg/mL (≈ 599 µM)
  MIC: 128 µg/mL (≈ 299 µM)
[1]; [12]
  MBC: > 256 µg/mL
  MIC: > 256 µg/mL
[1]; read-out: MBC 50, 11 CF Stenotrophomonas isolates
  MBC: > 256 µg/mL
Pseudomonas aeruginosa; 20 CF Pseudomonas isolates
  MBC 90: >256 µg/mL
Pseudomonas aeruginosa; Pseudomonas aeruginosa
  MIC50: > 256 µg/mL
  MIC90: > 256 µg/mL
Pseudomonas aeruginosa; [13]
  MBC: > 256 µg/mL
  MIC: > 256 µg/mL
Pseudomonas aeruginosa; [14]
  MBC: > 256 µg/mL
  MIC: > 256 µg/mL
Pseudomonas aeruginosa; [15]
  MBC: > 256 µg/mL
  MIC: > 256 µg/mL
Pseudomonas aeruginosa; [16]
  MBC: > 256 µg/mL
  MIC: > 256 µg/mL
Pseudomonas aeruginosa; [17]
  MBC: > 256 µg/mL
  MIC: > 256 µg/mL
Pseudomonas aeruginosa; [18]
  MBC: > 256 µg/mL
  MIC: > 256 µg/mL
Pseudomonas aeruginosa; [19]
  MBC: > 256 µg/mL
  MIC: > 256 µg/mL
Pseudomonas aeruginosa; [20]
  MBC: > 256 µg/mL
  MIC: > 256 µg/mL
Pseudomonas aeruginosa; [21]
  MBC: > 256 µg/mL
  MIC: > 256 µg/mL
Pseudomonas aeruginosa; [22]
  MBC: > 256 µg/mL
  MIC: > 256 µg/mL
Pseudomonas aeruginosa; [23]
  MBC: > 256 µg/mL
  MIC: > 256 µg/mL
Pseudomonas aeruginosa; [24]
  MBC: > 256 µg/mL
  MIC: > 256 µg/mL
Pseudomonas aeruginosa; [25]
  MBC: > 256 µg/mL
  MIC: > 256 µg/mL
Pseudomonas aeruginosa; [26]
  MBC: > 256 µg/mL
  MIC: > 256 µg/mL
Pseudomonas aeruginosa; [27]
  MBC: > 256 µg/mL
  MIC: > 256 µg/mL
Pseudomonas aeruginosa; [28]
  MBC: > 256 µg/mL
  MIC: > 256 µg/mL
Pseudomonas aeruginosa; [29]
  MBC: > 256 µg/mL
  MIC: > 256 µg/mL
Pseudomonas aeruginosa; [30]
  MBC: > 256 µg/mL
  MIC: > 256 µg/mL
Pseudomonas aeruginosa; [31]
  MBC: > 256 µg/mL
  MIC: > 256 µg/mL
Pseudomonas aeruginosa; [32]
  MBC: > 256 µg/mL
  MIC: > 256 µg/mL
Pseudomonas aeruginosa; Pseudomonas aeruginosa, read-out: MBC 50, 20 CF Pseudomonas isolates
  MBC: > 256 µg/mL
Pseudomonas aeruginosa; Pseudomonas aeruginosa, read-out: MBC 50, second MBC 50 line of the summary, Stenotrophomonas, values equal those of the CF Pseudomonas isolates
  MBC: > 256 µg/mL
Acinetobacter baumannii
  MIC50: > 256 µg/mL
  MIC90: > 256 µg/mL
Acinetobacter baumannii; Acinetobacter isolate NB31
  MBC: > 256 µg/mL
  MIC: > 256 µg/mL
Acinetobacter baumannii; Acinetobacter isolate NB32
  MBC: 256 µg/mL (≈ 599 µM)
  MIC: 256 µg/mL (≈ 599 µM)
Acinetobacter baumannii; Acinetobacter isolate NB33
  MBC: > 256 µg/mL
  MIC: > 256 µg/mL
Acinetobacter baumannii; Acinetobacter isolate NB34
  MBC: > 256 µg/mL
  MIC: > 256 µg/mL
Acinetobacter baumannii; Acinetobacter isolate NB35
  MBC: > 256 µg/mL
  MIC: > 256 µg/mL
Acinetobacter baumannii; Acinetobacter isolate NB36
  MBC: 128 µg/mL (≈ 299 µM)
  MIC: 128 µg/mL (≈ 299 µM)
Acinetobacter baumannii; Acinetobacter isolate NB37
  MBC: > 256 µg/mL
  MIC: > 256 µg/mL
Acinetobacter baumannii; Acinetobacter isolate NB38
  MBC: > 256 µg/mL
  MIC: > 256 µg/mL
Acinetobacter baumannii; Acinetobacter isolate NB39
  MBC: > 256 µg/mL
  MIC: > 256 µg/mL
Acinetobacter baumannii; Acinetobacter isolate NB40
  MBC: > 256 µg/mL
  MIC: > 256 µg/mL
Acinetobacter baumannii; read-out: MBC 50, 10 Acinetobacter isolates
  MBC: > 256 µg/mL
Burkholderia cenocepacia
  MIC90: 256 µg/mL (≈ 599 µM)
Burkholderia cenocepacia; 10 CF Burkholderia isolates
  MIC50: 128 µg/mL (≈ 299 µM)
Burkholderia cenocepacia; CF Burkholderia isolate NB21
  MBC: > 256 µg/mL
  MIC: 256 µg/mL (≈ 599 µM)
Burkholderia cenocepacia; CF Burkholderia isolate NB22
  MBC: 256 µg/mL (≈ 599 µM)
  MIC: 128 µg/mL (≈ 299 µM)
Burkholderia cenocepacia; CF Burkholderia isolate NB23
  MBC: > 256 µg/mL
  MIC: > 256 µg/mL
Burkholderia cenocepacia; CF Burkholderia isolate NB24
  MBC: > 256 µg/mL
  MIC: 128 µg/mL (≈ 299 µM)
Burkholderia cenocepacia; CF Burkholderia isolate NB25
  MBC: 256 µg/mL (≈ 599 µM)
  MIC: 128 µg/mL (≈ 299 µM)
Burkholderia cenocepacia; CF Burkholderia isolate NB26
  MBC: 256 µg/mL (≈ 599 µM)
  MIC: 128 µg/mL (≈ 299 µM)
Burkholderia cenocepacia; CF Burkholderia isolate NB27
  MBC: > 256 µg/mL
  MIC: 128 µg/mL (≈ 299 µM)
Burkholderia cenocepacia; CF Burkholderia isolate NB28b
  MBC: 16 µg/mL (≈ 37.4 µM)
  MIC: 16 µg/mL (≈ 37.4 µM)
Burkholderia cenocepacia; CF Burkholderia isolate NB29
  MBC: > 256 µg/mL
  MIC: 256 µg/mL (≈ 599 µM)
Burkholderia cenocepacia; CF Burkholderia isolate NB30
  MBC: 128 µg/mL (≈ 299 µM)
  MIC: 128 µg/mL (≈ 299 µM)

## CCN1CCN(C(=O)N[C@@H](C(=O)N[C@@H]2C(=O)N3[C@@H]2SC(C)(C)[C@@H]3C(=O)O)c2ccccc2)C(=O)C1=O [Pipercillin]
Pseudomonas aeruginosa; CF Pseudomonas isolate NB1
  MBC: 1024 µg/mL (≈ 1980 µM)
  MIC: 1024 µg/mL (≈ 1980 µM)
Pseudomonas aeruginosa; CF Pseudomonas isolate NB2
  MBC: 128 µg/mL (≈ 247 µM)
  MIC: 128 µg/mL (≈ 247 µM)
Pseudomonas aeruginosa; CF Pseudomonas isolate NB3
  MBC: >1024 µg/mL
  MIC: >1024 µg/mL
Pseudomonas aeruginosa; CF Pseudomonas isolate NB4
  MBC: 1024 µg/mL (≈ 1980 µM)
  MIC: 512 µg/mL (≈ 989 µM)
Pseudomonas aeruginosa; CF Pseudomonas isolate NB5
  MBC: >1024 µg/mL
  MIC: >1024 µg/mL
Pseudomonas aeruginosa; CF Pseudomonas isolate NB6
  MBC: >1024 µg/mL
  MIC: 1024 µg/mL (≈ 1980 µM)
Pseudomonas aeruginosa; CF Pseudomonas isolate NB7
  MBC: 1024 µg/mL (≈ 1980 µM)
  MIC: 512 µg/mL (≈ 989 µM)
Pseudomonas aeruginosa; CF Pseudomonas isolate NB8
  MBC: >1024 µg/mL
  MIC: >1024 µg/mL
Pseudomonas aeruginosa; CF Pseudomonas isolate NB9
  MBC: >1024 µg/mL
  MIC: 512 µg/mL (≈ 989 µM)
Pseudomonas aeruginosa; CF Pseudomonas isolate NB10
  MBC: 512 µg/mL (≈ 989 µM)
  MIC: 256 µg/mL (≈ 495 µM)
